These are literature values, as cited in the CATMoS acute toxicity set (Mansouri et al. 2021).

“And” between values parts separate entries of the source, which are not always exact repeats. Identical values can stand only once.

The data set can be described thus: rat acute oral toxicity. Conditions: in vivo.
`Fc1c(Cl)c(Cl)c(Cl)c2[nH]c(C(F)(F)F)nc12`: the LD50 is 0.847 mg/kg.
On to `OC1(c2ccc(Cl)c(C(F)(F)F)c2)CCN(CCCC(c2ccc(F)cc2)c2ccc(F)cc2)CC1`, for which the LD50 is 160 mg/kg.
Regarding `COc1cc(N)ccc1N`, the LD50 was 60 mg/kg and 70 mg/kg.
On to `CC(C)NCC(O)COc1cccc2[nH]ccc12` (centres undefined), for which the median lethal dose (LD50) is 263 mg/kg.
Consider `O=C(O)C(F)(F)C(F)(F)C(F)(F)C(F)(F)C(F)(F)C(F)(F)C(F)(F)C(F)(F)C(F)(F)C(F)F`, for which the LD50 was 518 mg/kg.
With `C=CC(=O)OC(C)COCC(C)OC(=O)C=C` (centres undefined), the LD50 was 4600 mg/kg.
On to `CNC(=S)N(C)C`, for which the LD50 was 316 mg/kg.
Consider `CCOC(=O)c1ncn2c1CN(C)C(=O)c1cc(F)ccc1-2`, for which the LD50 was 4200 mg/kg.
For the molecule `NCCCn1ccnc1`, the LD50 was 1780 mg/kg.
As for `CC(C)(C)c1cc(Br)c2nc(C(F)(F)F)[nH]c2c1`, the LD50 is 161 mg/kg.
In the case of `Nc1ccc(F)cc1`, the LD50 is 417 mg/kg.
Turning to `CCCCCCCCOC(=O)/C=C\C(=O)OCCCCCCCC`, the LD50 was 14200 mg/kg.
Turning to `O=c1[nH]c2ccc(Br)cc2o1`, the LD50 is 1000 mg/kg.
For the molecule `COc1ccccc1C=O`, the LD50 is 2500 mg/kg.
Take `CCOP(=S)(OCC)SCn1c(=O)oc2ccccc21`: the LD50 is 81 mg/kg.
With `c1ccc(C(c2ccccc2)(c2ccccc2)N2CCOCC2)cc1`, the LD50 is 83 mg/kg.
Regarding `S=C(Cl)Cl`, the LD50 is 929 mg/kg.
Consider `CC12CC1(C)C(=O)N(c1cc(Cl)cc(Cl)c1)C2=O` (centres undefined), for which the LD50 was 7000 mg/kg.
Take `COc1ccc2c(c1)c(CC(=O)NO)c(C)n2C(=O)c1ccc(Cl)cc1`: the LD50 is 78 mg/kg.
For `COc1c(C(=O)CCC(=O)O)ccc2c(C)c(C)oc12`, the LD50 was 3000 mg/kg.
Regarding `C1COCCO1`, the LD50 is 4200 mg/kg.
Take `O=S(=O)(C(Cl)CCl)C(Cl)CCl` (centres undefined): the LD50 was 250 mg/kg.
Regarding `Cc1ccc(S(=O)(=O)O)cc1`, the LD50 is 2570 mg/kg.
Turning to `CCC(=O)OCC(=O)[C@@]1(OC(=O)CC)[C@H](C)C[C@H]2[C@H]3[C@H]([C@@H](O)C[C@@]21C)[C@@]1(C)C=CC(=O)C=C1C[C@H]3Cl`, the LD50 is 3590 mg/kg.
Take `CCCCNC(=O)NS(=O)(=O)c1ccc(N)cc1`: the LD50 was 4400 mg/kg.
Consider `CCCCN(CCCC)N=O`, for which the LD50 was 1200 mg/kg.
Turning to `ClCC(Br)CBr` (centres undefined), the LD50 was 170 mg/kg.
As for `CN(C)C(=S)SCN1CCOCC1`, the LD50 was 1500 mg/kg.
Turning to `CC(=O)OCCC(Cl)C(C)=O` (centres undefined), the LD50 was 2050 mg/kg.
As to `CCCCCCCCCc1ccc(C)cc1O`, the LD50 is 4000 mg/kg.
As to `CC(C)C12C=CC(C)(CC1)OO2` (centres undefined), the LD50 is 200 mg/kg.
Consider `CCC1OCC(=NOC(=O)NC)S1` (centres undefined), for which the LD50 is 60 mg/kg.
With `CCCC=C(CC)[N+](=O)[O-]`, the LD50 was 620 mg/kg.
On to `Oc1ccc(NCc2ccccc2)cc1`, for which the LD50 is 400 mg/kg.
`COc1ccnc(CS(=O)c2nc3cc(OC(F)F)ccc3[nH]2)c1OC` (centres undefined): the LD50 was 747 mg/kg.
With `CCOP(=O)(OCC)OC(=C(Br)Br)c1ccc(Cl)cc1Cl`, the LD50 was 78.1 mg/kg.
As for `CCCCCCCCCCCCCCCCSCC(COC)COP(=O)([O-])OCC[N+](C)(C)C` (centres undefined), the LD50 was 253 mg/kg.
For `N#CCCSCCC#N`, the LD50 was 4210 mg/kg.
On to `CCOC(=O)NNc1ccc(N(CC)CC(C)O)nn1` (centres undefined), for which the LD50 was 2060 mg/kg.
In the case of `CNC(=O)Oc1ccccc1CCCSC`, the LD50 is 220 mg/kg.
For the molecule `CC(C)COC(=O)CCc1ccco1`, the LD50 was 1950 mg/kg.
As for `COc1ccc(C=O)cc1`, the LD50 was 1510 mg/kg.
In the case of `NCCSSCCN`, the LD50 is 896 mg/kg.
On to `CCOP(=S)(OCC)Oc1cc(C)c(SC)c(C)c1`, for which the LD50 was 375 mg/kg.
`CNC=O`: the LD50 was 4000 mg/kg.
Take `CCCCC(CC)COC(=O)c1ccccc1C(=O)OCC(CC)CCCC` (centres undefined): the LD50 is 30000 mg/kg.
For the molecule `CN(C)C(=O)Oc1ccccc1C1SCCS1`, the LD50 was 16 mg/kg.
For the molecule `COc1ccc2c(c1)Sc1ccccc1N2C1CCCN(C)C1` (centres undefined), the LD50 is 750 mg/kg.
`NCC(O)c1ccc(O)cc1` (centres undefined): the LD50 was 1240 mg/kg and 1090 mg/kg.
With `OCCN1CC1`, the LD50 was 74 mg/kg.
Regarding `C/C=C/Cl`, the LD50 is 1950 mg/kg.
As for `C=CC(=O)OCCN(CC)CC`, the LD50 was 770 mg/kg.
For the molecule `C=C(C)C(=O)OCCSCC`, the LD50 is 7400 mg/kg.
With `CC(C)(C)N(CCO)CCO`, the LD50 was 2720 mg/kg.
Turning to `N#CC=CCCC#N`, the LD50 was 380 mg/kg.
Turning to `S=C(NC1CCCCC1)NC1CCCCC1`, the 50% lethal dose (LD50) is 500 mg/kg.
Consider `CCC(C)OC(C[n+]1ccccc1)c1ccc(Cl)cc1` (centres undefined), for which the LD50 is 250 mg/kg.
For the molecule `CCCCCC(C=Cn1ccnc1)OCc1ccccc1` (centres undefined), the LD50 is 2550 mg/kg.
As for `Nc1cc(-c2ccncc2)c[nH]c1=O`, the LD50 is 102 mg/kg.
As to `CC(C)=CC1C(C(=O)OC(C#N)c2cccc(Oc3ccccc3)c2)C1(C)C` (centres undefined), the LD50 was 318 mg/kg.
As for `Nc1nc2cc(Cl)c(Br)cc2o1`, the 50% lethal dose (LD50) was 140 mg/kg.
As to `CC(=O)SCc1cnc(C)c(O)c1CSC(C)=O`, the LD50 is 870 mg/kg.
For the molecule `CCC(C)N(C(=O)c1c(Cl)cccc1Cl)C(C)CC` (centres undefined), the LD50 was 1450 mg/kg.
Consider `Cc1cc(O)c(C(C)(C)C)cc1Sc1cc(C(C)(C)C)c(O)cc1C`, for which the LD50 is 2340 mg/kg.
